Results published in patent US6686444B2, “Osteopontin derived chemotactic peptides and methods of use” (Children's Medical Center Corporation, priority 1996, dated 2004).

B1: OPN(ct): the C-terminal half of OPN after thrombin cleavage (protein)
chain: SKSRSFQVSDEQYPDATDEDLTSHMKSGESKESLDVIPVAQLLSMPSDQDNNGKGSHESSQLDEPSLETHRLEHSKESQESADQSDVIDSQASSKASLEHQSHKFHSHKDKLVLDPKSKEDDRYLKFRISHELESSSSEVN

What was measured:
osteosarcoma cells = test: Modified Boyden chamber chemotaxis of osteosarcoma cells; type: cell-based; settings: for Chemotactic activity (in words): osteosarcoma cells
Experimental: Purified OPN (˜0.5 mg) was digested with trypsin (2% w/w) in 0.2 ml of 50 mM NH4HCO3, pH 8.0, for 20 hours at 37° C. before treatment of the reaction products with 50 μl of 100% H2O+0.1% trifluoroacidic acid (TFA) and resolution of the peptides by HPLC chromatography on C-18 column (25×0.46 cm). After injection the column was washed for 10 min, followed by linear gradient elution from 100% H2O+0.1% TFA to 60% CH3CN+0.55% TFA over 120 min, with a second gradient from 60% CH3CN to 80% CN3CN over 30 min at a flow rate of 0.5 ml/min. The absorbance at 219 nm was recorded continuously by an on-line chart recorder/integrator using Gilson HM Holochrome detector, and fractions of 0.5 ml were collected. Each peak was then tested for mediation of chemotaxis or for its ability to inhibit OPN mediated chemotaxis using the chemotactic assay described in Example 4 below. Furthermore, each peak was also tested for its ability to promote attachment of CD44^+ or αvβx cells.
Positive peaks from tryptic digest were sequenced by gas-phase automated sequenator. Chemotactic peptides corresponding to the positive sequences were synthesized and the resulting synthetic peptides were then tested for their ability to promote either chemotaxis or to inhibit the chemotaxis to OPN as described in Example 4. Chemical synthesis of peptides provides a convenient method to test the sequence specificity and minimal length of the chemotactic peptides.
In a modified Boyden chamber, both surfaces of polycarbonate filters (pore size, 8 μm) were coated with gelatin (100 μg/ml, overnight) before 1×10^3 osteosarcoma cells were added in 500 μl to the upper chamber and incubated at 37° C. in the presence or absence of chemotactic agents in the lower chamber. After two hours, the membranes were fixed in methanol and stained with hematoxilin/toluidine blue. Responding cells on the lower surface of the filter were counted microscopically and evaluated in triplicates. Random migration was assessed by counting the number of cells that migrated to the lower surface of the filter when excess chemotactic molecule was added to the upper chamber.

peritoneal exudate cells = test: In vivo cellular migration into the peritoneum after intraperitoneal injection (peritoneal exudate, flow cytometry); set-up: species or system Mice
Experimental: Mice were injected intraperitoneally with varying dosages of K7 osteosarcoma-derived osteopontin. All injection volumes were 200 μl. Injections of vehicle alone (PBS) served as negative controls and vehicle plus 20 μg lipopolysaccharide (LPS) injections served as positive controls for elicitation of peritoneal exudates.
Mice were sacrificed by CO2-asphyxiation at varying times following injection. Immediately after sacrifice, peritoneal exudate was recovered by intraperitoneal injection and recovery of 10 mL PBS. The lavage procedure was performed twice on each mouse. Following this, red blood cells were lysed by hypotonic lysis with ACK lysis buffer (0.15 M NH4Cl, 1.0 mM KHCO3, 0.1 mM Na2EDTA, pH 7.4) for 5 minutes at room temperature, and the preparation was washed in DMEM, 5% FBS. Cells were resuspended in DMEM, 5% FBS for fluorescent antibody staining.
Each sample of cells to be analyzed for specific surface markers was suspended in DMEM, 5% FBS at a concentration of 0.2 to 1 million cells in 50 μl. Fluorescence-labeled antibodies were added at 1 μg/1×10^6 cells, and incubated with the cells for 30 minutes at 4° C. Samples were washed twice with 200 μl of PBS following antibody staining and fixed with 500 μl of 2% paraformaldehyde in PBS. Peritoneal exudate cells were analyzed by dual-color flow cytometry for expression of CD44 (PE), CD11b (Mac-1, FITC, macrophage marker), B220 (FITC, B-cell marker), and CD3 (FITC, T-cell marker). All antibodies were purchased from PharMingen and flow cytometric analysis was done using a Coulter EPICS flow cytometer. Controls for non-specific binding and single color controls were included.

[1] = Table 2, substance in lower chamber, upper chamber OPN
[2] = Table 2, substance in lower chamber, upper chamber PBS
[3] = Table 2, substance in lower chamber, upper chamber SP64
[4] = Table 2, substance in lower chamber, upper chamber peptide 51
[5] = Table 2, substance in upper chamber, lower chamber PBS
[6] = 6 hours after intraperitoneal injection
[7] = Table 3, substance in lower chamber, upper chamber Ab64
[8] = Table 3, substance in lower chamber, upper chamber OPN
[9] = Table 3, substance in lower chamber, upper chamber PBS
[10] = Table 3, substance in lower chamber, upper chamber peptide 51
[11] = Table 3, substance in upper chamber, lower chamber PBS
[12] = Table 4, substance in lower chamber, upper chamber OPN
[13] = Table 4, substance in lower chamber, upper chamber OPN(ct)
[14] = Table 4, substance in lower chamber, upper chamber OPN(nT)
[15] = Table 4, substance in lower chamber, upper chamber PBS, averages from at least three experiments
[16] = Table 4, substance in upper chamber, lower chamber PBS

| Molecule | Responding cells on the lower surface of the filter (osteosarcoma cells; [1]) | Responding cells on the lower surface of the filter (osteosarcoma cells; [2]) | Responding cells on the lower surface of the filter (osteosarcoma cells; [3]) | Responding cells on the lower surface of the filter (osteosarcoma cells; [4]) | Responding cells on the lower surface of the filter (osteosarcoma cells; [5]) | Chemotactic activity (in words) (osteosarcoma cells) | Responding cells on the lower surface of the filter (osteosarcoma cells; [7]) | Responding cells on the lower surface of the filter (osteosarcoma cells; [8]) | Responding cells on the lower surface of the filter (osteosarcoma cells; [9]) | Responding cells on the lower surface of the filter (osteosarcoma cells; [10]) | Responding cells on the lower surface of the filter (osteosarcoma cells; [11]) | Responding cells on the lower surface of the filter (osteosarcoma cells; [12]) | Responding cells on the lower surface of the filter (osteosarcoma cells; [13]) | Responding cells on the lower surface of the filter (osteosarcoma cells; [14]) | Responding cells on the lower surface of the filter (osteosarcoma cells; [15]) | Responding cells on the lower surface of the filter (osteosarcoma cells; [16]) | also measured |
| --- | --- | --- | --- | --- | --- | --- | --- | --- | --- | --- | --- | --- | --- | --- | --- | --- | --- |
| KFHSHKDKLVLDPKSK (OTHER INFORMATION: Osteopontin Derived Peptide) [SP64] | 74 | 117 | 66 | 40 | 4 | – | – | – | – | – | – | – | – | – | – | – | – |
| LVLAPK (OTHER INFORMATION: Osteopontin Derived Peptide) [mutant of peptide 51 with aspartic acid replaced] | – | – | – | – | – | failed to induce chemotaxis | – | – | – | – | – | – | – | – | – | – | – |
| VLDPK (OTHER INFORMATION: Osteopontin Derived Peptide) [peptide E] | – | – | – | – | – | retains some chemotactic activity | – | – | – | – | – | – | – | – | – | – | Chemotactic activity (in words) (osteosarcoma cells; listed as VLDPK): retains some chemotactic properties |
| osteopontin [OPN] | 43 | 118 | 45 | 32 | 21 | chemotax toward | 51 | 94 | 217 | 65 | 14 | 43 | 58 | 115 | 98 | 21 | Dose of peak response of cellular infiltrate (peritoneal exudate cells; [6]): around 13 μg; Number of CD3+ and B220+ cells in the infiltrate (peritoneal exudate cells; [6]): only marginally elevated; Number of Mac-1+ cells in the infiltrate over basal levels (peritoneal exudate cells; [6]): increased fivefold; Cellular infiltrate in the peritoneum (in words) (peritoneal exudate cells; 6 hours after intraperitoneal injection, dose titration): dose dependent increase; Dose of peak CD44+ Mac1+ cell response (peritoneal exudate cells; intraperitoneal injection): around 7 μg; Peritoneal influx of cells (peritoneal exudate cells; intraperitoneal injection, mice): 1.16 million cells |
| LVLDPK (OTHER INFORMATION: Osteopontin derived peptide) [peptide 51, chemotactic tryptic peptide of osteopontin, also synthesized] | 88 | 128 | 47 | 51 | 9 | showed chemotactic properties | 62 | 187 | 243 | 109 | 8 | – | – | – | – | – | Competition with OPN for the migration of cells (osteosarcoma cells): competes with OPN; Responding cells on the lower surface of the filter (osteosarcoma cells; Table 1, substance in lower chamber, upper chamber PBS): 68; Responding cells on the lower surface of the filter (osteosarcoma cells; Table 1, substance in lower chamber, upper chamber peptide 49): 83; Responding cells on the lower surface of the filter (osteosarcoma cells; Table 1, substance in lower chamber, upper chamber peptide 50): 56; Responding cells on the lower surface of the filter (osteosarcoma cells; Table 1, substance in lower chamber, upper chamber peptide 51): 32; Responding cells on the lower surface of the filter (osteosarcoma cells; Table 1, substance in lower chamber, upper chamber peptide 52): 78; Responding cells on the lower surface of the filter (osteosarcoma cells; Table 1, substance in lower chamber, upper chamber peptide 53): 62; Responding cells on the lower surface of the filter (osteosarcoma cells; Table 1, substance in upper chamber, lower chamber PBS): 13 |
| B1 | – | – | – | – | – | chemotax toward | – | – | – | – | – | 74 | 31 | 76 | 117 | 156 | – |
